Reference: PubChem BioAssay (NCI)
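In this assay, cells in 96-well plates receive the compound at five concentrations for 48 hours. Endpoints are linearly interpolated between the surrounding concentrations. The concentration for full growth arrest is given as TGI.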

Legend:
Test in all cases: NCI anticancer screen, dose series, 48 h
UO-31 renal = tested on: UO-31 renal
ACHN renal = tested on: ACHN renal
UACC-257 melanoma = tested on: UACC-257 melanoma
SNB-75 CNS = tested on: SNB-75 CNS
OVCAR-8 ovarian = tested on: OVCAR-8 ovarian
SF-268 CNS = tested on: SF-268 CNS
SK-OV-3 ovarian = tested on: SK-OV-3 ovarian
HT29 colon = tested on: HT29 colon
A549 NSCLC = tested on: A549 NSCLC
DU-145 prostate = tested on: DU-145 prostate
K-562 leukemia = tested on: K-562 leukemia
NCI/ADR-RES ovarian = tested on: NCI/ADR-RES ovarian
SNB-19 CNS = tested on: SNB-19 CNS
COLO 205 colon = tested on: COLO 205 colon
MDA-MB-435 = tested on: MDA-MB-435
NCI-H226 lung = tested on: NCI-H226 lung
UACC-62 melanoma = tested on: UACC-62 melanoma
OVCAR-3 ovarian = tested on: OVCAR-3 ovarian
786-0 renal = tested on: 786-0 renal
SK-MEL-2 melanoma = tested on: SK-MEL-2 melanoma
SK-MEL-28 melanoma = tested on: SK-MEL-28 melanoma
CCRF-CEM leukemia = tested on: CCRF-CEM leukemia
SR leukemia = tested on: SR leukemia
HCT-15 colon = tested on: HCT-15 colon
OVCAR-4 ovarian = tested on: OVCAR-4 ovarian
NCI-H23 lung = tested on: NCI-H23 lung
HCC-2998 colon = tested on: HCC-2998 colon
EKVX NSCLC = tested on: EKVX NSCLC
A498 renal = tested on: A498 renal
IGROV1 ovarian = tested on: IGROV1 ovarian
HL-60(TB) leukemia = tested on: HL-60(TB) leukemia
TK-10 renal = tested on: TK-10 renal
BT-549 breast = tested on: BT-549 breast
U251 CNS = tested on: U251 CNS
SW-620 colon = tested on: SW-620 colon
MDA-N = tested on: MDA-N
RPMI-8226 leukemia = tested on: RPMI-8226 leukemia
CAKI-1 renal = tested on: CAKI-1 renal
LOX IMVI melanoma = tested on: LOX IMVI melanoma
SK-MEL-5 melanoma = tested on: SK-MEL-5 melanoma
SF-295 CNS = tested on: SF-295 CNS
NCI-H460 lung = tested on: NCI-H460 lung
T-47D breast = tested on: T-47D breast
M14 melanoma = tested on: M14 melanoma
HOP-92 NSCLC = tested on: HOP-92 NSCLC
MDA-MB-231 breast = tested on: MDA-MB-231 breast
OVCAR-5 ovarian = tested on: OVCAR-5 ovarian
PC-3 prostate = tested on: PC-3 prostate
MALME-3M melanoma = tested on: MALME-3M melanoma
HCT-116 colon = tested on: HCT-116 colon
KM12 colon = tested on: KM12 colon
MCF7 breast = tested on: MCF7 breast
SN12C renal = tested on: SN12C renal
HOP-62 NSCLC = tested on: HOP-62 NSCLC

Measured: TGI

Cn1c(C(O)C2(c3cccnc3)SCCCS2)cc2ccccc21 (centres undefined)
> 100 µM: UO-31 renal | ACHN renal | UACC-257 melanoma | SNB-75 CNS | OVCAR-8 ovarian | SF-268 CNS | SK-OV-3 ovarian | HT29 colon | A549 NSCLC | DU-145 prostate | K-562 leukemia | NCI/ADR-RES ovarian | SNB-19 CNS | COLO 205 colon | MDA-MB-435 | NCI-H226 lung | UACC-62 melanoma | OVCAR-3 ovarian | 786-0 renal | SK-MEL-2 melanoma | SK-MEL-28 melanoma | CCRF-CEM leukemia | SR leukemia | HCT-15 colon | OVCAR-4 ovarian | NCI-H23 lung | HCC-2998 colon | EKVX NSCLC | A498 renal | IGROV1 ovarian | HL-60(TB) leukemia | TK-10 renal | BT-549 breast | U251 CNS | SW-620 colon | MDA-N | RPMI-8226 leukemia | CAKI-1 renal | LOX IMVI melanoma | SK-MEL-5 melanoma | SF-295 CNS | NCI-H460 lung | T-47D breast | M14 melanoma | HOP-92 NSCLC | MDA-MB-231 breast | OVCAR-5 ovarian | PC-3 prostate | MALME-3M melanoma | HCT-116 colon | KM12 colon | MCF7 breast | SN12C renal | HOP-62 NSCLC
